# Source: patent US20250313555A1, “2-SUBSTITUTED THIAZOLE AND BENZOTHIAZOLE COMPOSITIONS AND METHODS AS DUX4 INHIBITORS” (ALTAY THERAPEUTICS, INC., priority 2022, published 2025)
# Columns and labels:
# Type in all cases: cell-based
# [1] = Cell cytotoxicity 50 assay (CC50), MB200 cells, cell titer glo; conditions: human
# Procedure: Cell Cytotoxicity 50 Assay Protocol (CC50) MB200 cells were grown until 80% confluent in F10 media supplemented with rhFGF basic (10 ng/ml), 15% fetal bovine serum, 1% penicillin streptomycin, 1% amphotericin B, and 1 μM dexamethasone. Adherent MB200 cells growing on 10 cm plate were then trypsinized with 1 ml of trypsin. Once the cells detached from the plate, F10 media (10 mL) was added, and the cells were strained through a 70 μm cell strainer. The cells were counted using a mixture of 10 μL cell suspension with 10 μL of trypan blue. Once the total number of cells were counted, a dilution of 200 k/mL was prepared, and the cells were seeded with 10 k cells/well in a 96-well plate in triplicate, making sure to avoid seeding cells in the edges of the plate to avoid edge effects. Using a multichannel pipet, the 200 k/mL cell dilution (50 μL/well) was added into wells B2-B11, C2-C11, and D2-D11 in triplicate. Into a deep well block (DWB), the media for the appropriate cell line (450 μL/well) was added into wells 1-10. Into DWB well 2, 10 mM of drug solution (13.5 μL) was added, followed by an additional volume of the medium (225 μL). The well was pipetted up/down four times. A portion (225 μL) was transferred to well 3, and this process was repeated up to well 10. Using a multichannel pipet, a smaller portion (50 μL/well) was removed from all wells in the DWB and then dispensed on top of the cells in each corresponding row. After adding the drug, the plate was incubated at 37° C. for 72 h. Using a multi-channel pipet, pre-warmed cell titer glo reagent (Promega) (100 μL) was added into every well. After 5 minutes, the total luminescence was measured with a luminometer. CC50 was determined with GraphPad prism template.
# MBD3L2 RNA = test: RNA isolation and qPCR to determine MBD3L2 RNA levels in FSHD cells; conditions: 48 hrs
# Procedure: Protocol for RNA Isolation and qPCR to Determine MBD3L2 RNA Levels The protocol describes the process of isolating RNA from cultured cells, converting the RNA to complementary DNA (cDNA), and measuring target gene expression using a quantitative polymerase chain reaction (qPCR). The seed FSHD cells were dispensed into a six-well dish. One day after seeding, the DUX4 inhibitor (11 μM or 3.6 μM/well) was added to the cells. After another 48 hrs, the old media was removed from the cells. The cells were washed with 2 mL of warm phosphate buffered saline (PBS). The PBS was aspirated, and the cells were lysed in each well with 350 μL of RLT buffer+3.5 μL of beta-mercaptoethanol (BME). The lysates were added to fresh, RNAse-free, labeled Eppendorf tubes. The cells were then physically disrupted for […] at level 4 of the bead disrupter to ensure the release of the RNA. The RNA was collected according to standard procedures (i.e., Qiagen kit instructions) as discussed below. The RNA concentrations were standardized to […]. In a PCR tube, RNA (2 μg) in a new Eppendorf tube was diluted with RNase-free water to a 9.5 μL final volume of […] RNA. DNase was used to remove any DNA contamination. A DNase Master Mix was prepared from 1.5 μL/reaction DNase solution (1 unit/μL, Promega), 3 μL/reaction 5× RT buffer (i.e., 250 mM Tris-HCl (pH 8.3), 375 mM KCl, 15 mM MgCl2, and 500 μl 0.1 M DTT; Promega MMLV), and 1 μL/reaction RNase inhibitor solution (RNasin, 40 units/μL, Promega). The DNase Master Mix was added to the standardized RNA samples (5.5 μL/sample). The samples were mixed by agitation and briefly spun down by centrifuge. The samples were heated to 37° C. for 60 min, 80° C. for 5 min, and then cooled to 4° C. The samples were stored on ice until the addition of the next reagents. An RT Reaction Master Mix was prepared from 5 μL/reaction 5× RT buffer, 2 μL/reaction dNTP solution (2.5 mM in each nucleotide), 1 μL/reaction RNase inhibitor solution (RNasin, 40 units/μL, Promega), 1.6 μL/reaction M-MLV reverse transcriptase (200 units/μL, Promega), and 13.4 μL/reaction deionized, RNase-free water. The RT Reaction Master Mix was cooled on ice until use. A 50 μM solution of Random Primer 6 random hexanucleotides (2 μL) was added to each sample. The samples were mixed by agitation and briefly spun down by centrifuge. The samples were heated to 70° C. for 5 min and then cooled to 4° C. The RT Reaction Master Mix (23 μL) was added to each sample. The samples were mixed by agitation and briefly spun down by centrifuge. To convert the RNA to cDNA, the samples were heated to 42° C. for 60 min, 95° C. for 5 min, and then cooled to 4° C. The cDNA product mixture was diluted 5:1 with deionized water (40 μL+160 μL). The samples were run in triplicate, with a methyl-CpG-binding protein 3-like 2 (MBD3L2) target primer and a eukaryotic translation elongation factor 1-alpha (EEF1A) control primer. An qPCR Master Mix was prepared for each primer and stored on ice (4° C.) until use. The qPCR Master Mix included 10 μL/reaction SYBR Green Mix (2×) (ThermoFisher), 1 μL/reaction of the primer mix (i.e., the MBD3L2 PCR Primer mix or the EEF1A Primer mix), and 4 μL/reaction deionized, RNase-free water. To set up the qPCR plate, 15 μL of the appropriate qPCR Master Mix was added to the appropriate wells for each target/primer. After all the targets/primers have been added to the wells, 5 μL of the sample was added to the corresponding wells so that each well is 20 μL total. The plate was covered with a clear sheet. An qPCR run was set up (QuantStudio 5) with the following cycle: […]
# [2] = Cell cytotoxicity 50 assay (CC50), HEK cells; conditions: human
# Procedure: Cell Cytotoxicity 50 Assay Protocol (CC50) Into a deep well block (DWB), the media for the appropriate cell line (450 μL/well) was added into wells 1-10. Into DWB well 2, 10 mM of drug solution (13.5 μL) was added, followed by an additional volume of the medium (225 μL). The well was pipetted up/down four times. A portion (225 μL) was transferred to well 3, and this process was repeated up to well 10. Using a multichannel pipet, a smaller portion (50 μL/well) was removed from all wells in the DWB and then dispensed on top of the cells in each corresponding row. After adding the drug, the plate was incubated at 37° C. for 72 h. Using a multi-channel pipet, pre-warmed cell titer glo reagent (Promega) (100 μL) was added into every well. After 5 minutes, the total luminescence was measured with a luminometer. CC50 was determined with GraphPad prism template.
Compound,CC50 at 72 h [1],qPCR MBD3L2 Inhib at 11 µM (MBD3L2 RNA),CC50 at 72 h [2]
CC(=O)NC/C=C/C(=O)Nc1ccc(-c2nc3ccccc3s2)cc1 [Compound 77],> 10 µM,YES,> 10 µM
O=C(CCCc1cnco1)Nc1ccc(-c2nc3ccccc3s2)nc1 [Compound 81],> 10 µM,YES,> 10 µM
O=C(CCc1cccnc1)Nc1ccc(-c2nc3ccccc3s2)nc1 [Compound 83],> 10 µM,YES,> 10 µM
CC(=O)NCCCC(=O)Nc1ccc(-c2nc3cc(F)c(F)cc3s2)cc1 [Compound 84],> 10 µM,YES,> 10 µM
CC(=O)NC1CCC(C(=O)Nc2ccc(-c3nc4ccccc4s3)cc2)C1 (stereo not drawn) [Compound 85],> 10 µM,YES,> 10 µM
CC(=O)NC1CC(C(=O)Nc2ccc(-c3nc4ccccc4s3)cc2)C1 (stereo not drawn) [Compound 86],> 10 µM,YES,> 10 µM
CC(=O)NCCCC(=O)Nc1ccc(C(C)(C)c2nc3ccccc3s2)cc1 [Compound 87],> 10 µM,YES,> 10 µM
O=C(CCCN1C(=O)CCC1=O)Nc1ccc(-c2nc3c(s2)CCCC3)cc1 [Compound 88],> 10 µM,YES,> 10 µM
O=C(CCCN1C(=O)CCC1=O)NCc1ccc(-c2nc3ccccc3s2)cc1 [Compound 93],> 10 µM,YES,> 10 µM
O=C(Nc1ccc(-c2nc3ccccc3s2)cc1)C1CCC(N2C(=O)CCC2=O)C1 (stereo not drawn) [Compound 94],> 10 µM,YES,> 10 µM
CC(=O)NCCC(=O)Nc1ccc(-c2nc3cc(C#N)ccc3s2)cc1 [Compound 103],> 10 µM,YES,> 10 µM
CC(=O)NC(C)(C)/C=C/C(=O)Nc1ccc(-c2nc3ccccc3s2)cc1 [Compound 104],> 10 µM,YES,> 10 µM
CC(=O)NCCCC(=O)NCc1ccc(-c2nc3ccccc3s2)cc1 [Compound 105],> 10 µM,YES,> 10 µM
O=C(CCCN1CCCC1=O)NCc1ccc(-c2nc3ccccc3s2)cc1 [Compound 109],> 10 µM,YES,> 10 µM
CC(=O)NCCNC(=O)Cc1ccc(-c2nc3cc(F)ccc3s2)cc1 [Compound 111],> 10 µM,YES,> 10 µM
O=C(CCCN1CCCC1=O)Nc1ccc(-c2nc3cc(F)ccc3s2)cc1 [Compound 116],> 10 µM,YES,> 10 µM
CC(=O)NCCCC(=O)Nc1ccc(-c2nc3ccccc3s2)c(C)c1 [Compound 129],> 10 µM,YES,> 10 µM
CC(=O)NCCCC(=O)Nc1ccc(-c2nc(-c3ccccc3)cs2)cc1 [Compound 130],> 10 µM,YES,> 10 µM
O=C(CCCCc1cccnc1)Nc1ccc(-c2nc3ccccc3s2)cc1 [Compound 140],> 10 µM,YES,> 10 µM
CN(C(=O)CCCN1C(=O)CCC1=O)c1ccc(-c2nc3ccccc3s2)cc1 [Compound 141],> 10 µM,YES,1 to 10 µM
CC(=O)NCCCC(=O)N(C)c1ccc(-c2nc3ccccc3s2)cc1 [Compound 142],> 10 µM,YES,> 10 µM
CC(=O)NCCCC(=O)N(C)c1ccc(-c2nc3cc(F)ccc3s2)cc1 [Compound 145],> 10 µM,YES,> 10 µM
